From patent US11214803B2, “Modulators of YAP1 expression” (Ionis Pharmaceuticals, Inc., priority 2019, dated 2022)
Strand notation (5' to 3'): a small letter for the sugar, then the base; units joined by * are phosphorothioate-linked, units joined directly phosphodiester-linked; [ ] holds rarer units or linkages, { } end groups; capitals alone tell only the bases. k = constrained ethyl (cEt); [5mC] = 5-methylcytosine; d = 2'-deoxy (DNA)

Tested on: Yap1 mRNA
Experiment: Antisense inhibition of human Yap1 in A-431 cells by cEt gapmers, single dose (Example 2, RTS4814)
Type: cell-based
In short: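 Free uptake, 2,000 nM, ~48 h, A-431 at 5,000 cells/well. Readout: RT-qPCR (RTS4814), RIBOGREEN-normalized, % UTC. 16-mer 3-10-3 cEt gapmers, full PS backbone, all C as 5-methylcytosine.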

[1] = Table 21, Yap1 mRNA, percent of untreated control, 3-10-3 cEt gapmers targeting SEQ ID NO.: 1 and 2
[2] = Table 23, Yap1 mRNA as percent of untreated control, 3-10-3 cEt gapmers, single dose
[3] = Table 25, Yap1 mRNA as percent of untreated control, 3-10-3 cEt gapmers targeting SEQ ID NO.: 1, and 2
[4] = A-431 cells, 5,000 cells per well, free uptake, 2,000 nM modified oligonucleotide, approx. 48 hours, RTS4814, normalized to RIBOGREEN, Table 4, asterisk (*) = targets amplicon region of primer probe set
[5] = Table 32, Yap1 mRNA, percent of untreated control, 3-10-3 cEt gapmers targeting SEQ ID NO.: 1, and 2
[6] = Yap1 mRNA as percent of untreated control, A-431 cells, 3-10-3 cEt gapmers targeting SEQ ID NO.: 1, and 2, Table 31
[7] = Table 18, A-431 cells, 5,000 cells per well, free uptake, 2,000 nM modified oligonucleotide, approx. 48 hours, RTS4814, normalized to RIBOGREEN, Yap1 mRNA as percent of untreated control
[8] = Table 5, A-431 cells, 5,000 cells per well, free uptake, 2,000 nM modified oligonucleotide, approx. 48 hours, RTS4814, normalized to RIBOGREEN, Yap1 mRNA relative to untreated control cells

1076551 (antisense kG*kT*kG*dG*dA*dA*dT*dA*dG*d[5mC]*dA*dG*d[5mC]*k[5mC]*kA*kT) [Compound 1076551]
YAP1 (% UTC) [1]: 67 % UTC

716555 (kT*kA*k[5mC]*dT*dT*dT*dT*dT*d[5mC]*dA*dA*dG*dA*kT*kA*k[5mC]; antisense) [Compound 716555]
YAP1 (% UTC) (Table 6, A-431 cells, 5,000 cells per well, free uptake, 2,000 nM modified oligonucleotide, approx. 48 hours, RTS4814, normalized to RIBOGREEN, Yap1 mRNA relative to untreated control cells): 99 % UTC

1075113 (antisense kT*kA*kT*dA*dA*dA*dT*dA*d[5mC]*d[5mC]*dA*dG*dG*kT*kA*k[5mC]) [Compound 1075113]
YAP1 (% UTC) [2]: 67 % UTC

1074949 (antisense kG*kT*kG*dA*dT*dT*dT*dT*dT*dT*d[5mC]*dT*dG*kA*kG*kT) [Compound 1074949]
YAP1 (% UTC) (Table 19, A-431 cells, 5,000 cells per well, free uptake, 2,000 nM modified oligonucleotide, approx. 48 hours, RTS4814, normalized to RIBOGREEN, Yap1 mRNA as percent of untreated control): 31 % UTC

1075655 (k[5mC]*kT*kA*dT*dT*dA*dA*dG*dA*d[5mC]*dG*dA*dA*kT*k[5mC]*k[5mC]; antisense) [Compound 1075655]
YAP1 (% UTC) [1]: 38 % UTC

1075497 (kA*kT*kT*dA*dT*dA*dT*dA*dA*dT*dG*d[5mC]*dA*kG*kG*k[5mC]; antisense) [Compound 1075497]
YAP1 (% UTC) [2]: 14 % UTC

1076395 (kG*kT*kA*dA*d[5mC]*dT*dA*dA*d[5mC]*d[5mC]*dT*dA*dA*kG*kG*kA; antisense) [Compound 1076395]
YAP1 (% UTC) [3]: 34 % UTC

716358 (k[5mC]*kG*kA*dG*dG*dG*d[5mC]*dT*dA*d[5mC]*dG*d[5mC]*d[5mC]*k[5mC]*kG*kG; antisense) [Compound 716358]
YAP1 (% UTC) [4]: 104 % UTC

1074770 (kA*kT*k[5mC]*dT*dT*dA*dT*d[5mC]*d[5mC]*d[5mC]*dA*dA*dT*kG*k[5mC]*kT; antisense) [compound 1074770]
YAP1 (% UTC) [5]: 15 % UTC

1075531 (k[5mC]*kT*kT*dA*dA*dT*dA*dG*dT*dT*dT*dA*dA*k[5mC]*k[5mC]*kT; antisense) [Compound 1075531]
YAP1 (% UTC) [3]: 66 % UTC

1075698 (kG*kT*kT*dT*dA*dA*dT*dA*dA*dT*d[5mC]*d[5mC]*dA*kT*kG*k[5mC]; antisense) [compound 1075698]
YAP1 (% UTC) [5]: 10 % UTC

1074897 (antisense kG*kG*k[5mC]*dA*dA*dA*dG*dT*dT*d[5mC]*d[5mC]*dT*dA*kT*kG*k[5mC]) [compound 1074897]
YAP1 (% UTC) [6]: 76 % UTC

716538 (antisense kT*k[5mC]*kT*dG*dA*dA*dA*d[5mC]*dT*d[5mC]*d[5mC]*dA*dA*kA*kT*k[5mC]) [Compound 716538]
YAP1 (% UTC) [4]: 77 % UTC

1076356 (k[5mC]*kA*kT*dA*dA*dT*dT*dG*dG*dA*d[5mC]*dT*dG*kT*k[5mC]*kT; antisense) [Compound 1076356]
YAP1 (% UTC) [7]: 99 % UTC

1075076 (antisense k[5mC]*kA*kT*dA*dA*d[5mC]*dA*dT*d[5mC]*dA*dT*dG*dG*kA*kA*kG) [Compound 1075076]
YAP1 (% UTC) [7]: 25 % UTC

716392 (k[5mC]*kT*kG*d[5mC]*d[5mC]*dA*d[5mC]*d[5mC]*d[5mC]*dA*dT*dG*dA*k[5mC]*kG*k[5mC]; antisense) [Compound 716392]
YAP1 (% UTC) [8]: 95 % UTC

1076274 (kT*kG*kA*dG*dA*dA*dT*dA*dG*dA*dG*d[5mC]*dA*kG*kG*kT; antisense) [compound 1076274]
YAP1 (% UTC) [5]: 9 % UTC

1075940 (kA*k[5mC]*kT*d[5mC]*dA*dA*d[5mC]*dA*dA*d[5mC]*d[5mC]*d[5mC]*d[5mC]*kA*kA*kG; antisense) [Compound 1075940]
YAP1 (% UTC) [7]: 54 % UTC

716458 (kA*kA*kG*d[5mC]*dA*dG*dG*dG*dA*dA*dA*d[5mC]*d[5mC]*kT*kA*kA; antisense) [Compound 716458]
YAP1 (% UTC) [8]: 94 % UTC

1074474 (k[5mC]*k[5mC]*kA*dA*d[5mC]*d[5mC]*d[5mC]*d[5mC]*d[5mC]*d[5mC]*d[5mC]*dA*d[5mC]*k[5mC]*kG*kA; antisense) [Compound 1074474]
YAP1 (% UTC) (Table 24, Yap1 mRNA as percent of untreated control, 3-10-3 cEt gapmers targeting SEQ ID NO.: 1, and 2): 71 % UTC

1076337 (antisense kA*kT*kT*dA*dA*dA*d[5mC]*d[5mC]*dA*dG*dG*dG*dA*k[5mC]*kT*kG) [compound 1076337]
YAP1 (% UTC) [6]: 25 % UTC
